Columns and labels:
[1] = target: T1, c-Met kinase (Homo sapiens, UniProt P08581); experiment: c-Met inhibition assay (Caliper motility shift assay); assay type: biochemical; details: for c-Met inhibition % Inhibition (10 μΜ): 10 μΜ compound, n = 3 (mean ± SD)
T1 construct: purchased Carna
Description: A Caliper motility shift assay was applied to test the potency of synthesised compounds against c-Met kinase. Briefly, the compounds were dissolved in DMSO (Sigma) at 0.5 mM concentration, and then were diluted 50× to the final desired highest inhibitor concentration (10 μM) in reaction by DMSO. For all compounds, 100 μL of the diluted compound solution in tubes was transferred to a well on a 96-well plate (Corning) and was serially diluted 10× by transferring 10 μL dilution to 90 μL DMSO in the next well. 100 μL DMSO was added to two empty wells in the same 96-well plate for no compound control and no enzyme control. The plate was marked as source plate. 10 μL of compound solution from source plate was transferred to a new 96-well plate as the intermediate plate. […] After that, 5 μL solution from each well of the intermediate plate was transferred to a 384-well plate (Corning) as the assay plate in duplicates.c-Met kinase (Carna) was added in 1× kinase base buffer to prepare 2.5× enzyme solution, and FAM-labled peptide (GL Biochem) and ATP (Sigma) were added in 1× kinase base buffer to prepare 2.5× peptide solution. 10 μL of 2.5× enzyme solution was added to each well of the 384-well assay plate that already contained 5 μL of compound in 10% DMSO, and then incubated at room temperature for 10 min. […] The data were collected on Caliper and the conversion data were copied from Caliper program.
IC50 values were calculated from three independent experiments by fitting the data in XLfit with the following equation: Y = Bottom + (Top-Bottom)/(1 + (IC50/X)^HillSlope).

[2] = tested on: A549 (human lung cancer) cell line; experiment: Cell proliferation assay (MTT), A549; assay type: cell-based; details: 48 h exposure, n = 3 (mean ± SD), read-out: Proliferative inhibition IC50, A549
Description: (§1) The anti-proliferative activities of the prepared compounds (12a-12s) were evaluated against A549, MCF-7 and MKN-45 cell lines by MTT assay in vitro. Briefly, tumour cells were cultured to log phase in RPMI 1640 medium supplemented with 10% foetal bovine serum (FBS). After diluting to 2 × 10^4 cells mL^−1 with the complete medium, 100 µL of the obtained cell suspension was added to each well of 96-well culture plates. Subsequently, incubation was performed at 37 °C in 5% CO2 for 24 h before the anti-proliferative assessment. Tested samples at pre-set concentrations were added to 6 wells with cabozantinib as a positive reference. After 48 h exposure period, 40 µL of PBS containing 2.5 mg mL^−1 of MTT was added to each well. Four hours later, 100 µL extraction solution (10% SDS-5% isobutyl alcohol-0.010M HCl) was added. After an overnight incubation at 37°C, the absorbance was measured at a wavelength of 570 nm with an ELISA microplate reader. All compounds were tested three times in each tumour cell lines. The IC50 values were the averages of three determinations and calculated by concentration-response curve fitting method.
(§2) All the synthesised compounds […] were evaluated for their antiproliferation activities against A549 (human lung cancer), MCF-7 (human breast cancer) and MKN-45 (human gastric cancer) cell lines by MTT assay, using cabozantinib as the positive control.

[3] = tested on: MCF-7 (human breast cancer) cell line; experiment: Cell proliferation assay (MTT), MCF-7; assay type: cell-based; details: MCF7, 48 h exposure, n = 3 (mean ± SD), read-out: Proliferative inhibition IC50, MCF-7
Description: as §1, §2

[4] = tested on: MKN-45 (human gastric cancer) cell line; experiment: Cell proliferation assay (MTT), MKN-45; assay type: cell-based; details: 48 h exposure, n = 3 (mean ± SD), read-out: Proliferative inhibition IC50, MKN-45
Description: as §1, §2

T1 sequence (P08581 25-1390): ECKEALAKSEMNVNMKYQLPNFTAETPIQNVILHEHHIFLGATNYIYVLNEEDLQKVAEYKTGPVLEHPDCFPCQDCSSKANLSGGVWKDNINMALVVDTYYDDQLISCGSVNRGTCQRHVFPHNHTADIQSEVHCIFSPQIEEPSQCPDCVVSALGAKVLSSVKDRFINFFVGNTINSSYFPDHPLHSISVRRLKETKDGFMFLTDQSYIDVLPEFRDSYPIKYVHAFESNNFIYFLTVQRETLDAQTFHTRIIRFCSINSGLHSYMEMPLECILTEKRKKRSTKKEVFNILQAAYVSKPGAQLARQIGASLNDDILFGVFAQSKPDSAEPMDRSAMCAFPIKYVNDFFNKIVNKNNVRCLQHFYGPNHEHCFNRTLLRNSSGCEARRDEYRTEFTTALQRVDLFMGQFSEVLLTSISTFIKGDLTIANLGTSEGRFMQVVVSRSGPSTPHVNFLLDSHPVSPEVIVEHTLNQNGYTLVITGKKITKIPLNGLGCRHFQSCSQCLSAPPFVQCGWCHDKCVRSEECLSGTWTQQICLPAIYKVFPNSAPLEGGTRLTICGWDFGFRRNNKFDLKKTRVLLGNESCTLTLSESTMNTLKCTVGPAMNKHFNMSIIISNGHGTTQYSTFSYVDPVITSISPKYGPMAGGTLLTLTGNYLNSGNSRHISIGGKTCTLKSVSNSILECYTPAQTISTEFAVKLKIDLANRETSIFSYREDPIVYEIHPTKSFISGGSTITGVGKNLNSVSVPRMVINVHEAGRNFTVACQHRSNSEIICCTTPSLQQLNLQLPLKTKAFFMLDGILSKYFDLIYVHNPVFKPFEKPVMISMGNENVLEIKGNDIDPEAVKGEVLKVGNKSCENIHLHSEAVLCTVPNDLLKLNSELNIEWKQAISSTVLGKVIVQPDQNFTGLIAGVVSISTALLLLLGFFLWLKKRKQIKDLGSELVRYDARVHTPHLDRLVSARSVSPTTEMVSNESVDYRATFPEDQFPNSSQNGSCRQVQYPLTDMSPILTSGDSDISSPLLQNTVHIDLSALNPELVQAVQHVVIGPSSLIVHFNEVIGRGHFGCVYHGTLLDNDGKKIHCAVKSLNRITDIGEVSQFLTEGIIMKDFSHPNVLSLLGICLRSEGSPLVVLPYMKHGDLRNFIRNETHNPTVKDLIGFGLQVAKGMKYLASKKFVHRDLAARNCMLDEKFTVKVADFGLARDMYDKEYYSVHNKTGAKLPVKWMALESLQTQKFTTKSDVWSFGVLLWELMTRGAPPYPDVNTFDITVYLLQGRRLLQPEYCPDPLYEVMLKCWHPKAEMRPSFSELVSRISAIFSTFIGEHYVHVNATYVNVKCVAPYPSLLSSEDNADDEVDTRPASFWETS

Q: What does the source list for `COc1cc2nccc(Nc3ccc4nc(-c5ccccc5OC)[nH]c4c3)c2cc1OC` [Compound 12o, 6,7-Dimethoxy-N-(2–(2-methoxyphenyl)-1H-benzo[d]imidazol-6-yl)quinolin-4-amine]?
A: c-Met inhibition % Inhibition (10 μΜ) [1]: 24.2 ± 0.1%; IC50 [2]: > 100 µM; IC50 [3]: > 100 µM; IC50 [4]: > 100 µM; melting point: 164 to 166 °C

Q: For `COc1cc2nccc(Nc3ccc4nc(-c5c(F)cccc5F)[nH]c4c3)c2cc1OC` [Compound 12p, N-(2–(2,6-difluorophenyl)-1H-benzo[d]imidazol-6-yl)-6,7-dimethoxyquinolin-4-amine], which “c-Met inhibition % Inhibition (10 μΜ)” value [1] is on record?
A: 25.9 ± 1.5%

Q: What about the “c-Met inhibitory activity in words” value ([1]; SAR statement, ortho-substituted compounds) of the same molecule?
A: loss of activity

Q: And the IC50 [2]?
A: > 100 µM

Q: And the IC50 [3]?
A: > 100 µM

Q: And the IC50 [4]?
A: > 100 µM

Q: And the melting point?
A: 208 to 210 °C

From publication PMC6237173, “Synthesis of novel 6,7-dimethoxy-4-anilinoquinolines as potent c-Met inhibitors” (Journal of Enzyme Inhibition and Medicinal Chemistry, 2018)
